Data as given in patent US3950352A, “2,2-Dimethyl-3R-carboxy-6S-phenyl(or phenoxy)acetamido-1-oxa-4-aza-5R-bicyclo[3,2,0]heptan-7-one and processes for their production” (Queen's University, priority 1974, dated 1976).

Test: antibacterial activity (organism not stated)
Type: cell-based
Settings: at levels of 250 mcg./ml.
From the text: After overnight development in a system containing n-butanol 60:acetic acid:15: water 25, the strips were air dried and one set was sprayed with Riker penicillinase. Both sets were then subjected to bioautography on B. subtilis.

**Q.** For CC(C)=C(C(=O)O)N1C(=O)[C@H]2N=C(Cc3ccccc3)O[C@H]21 [oxazoline carboxylic acid, 2-benzyl-6-(1'-carboxy-2'-methylprop-1'-enyl)-1-oxa-3,6-diaza-4S,5R-bicyclo [3,2,0] hept-2-en-7-one], which antibacterial activity is on record?
**A.** The antibacterial activity was “inactive”.
